This note sets out measurements from patent EP1210336B1, “SUBSTITUTED BENZIMIDAZOLES AS NON-NUCLEOSIDE INHIBITORS OF REVERSE TRANSCRIPTASE” (THE UNITED STATES OF AMERICA, as represented by the …, priority 1999, dated 2001).

Values joined by “and” are separate entries in the source; they are usually repeats but may differ in a detail not shown here. Identical values can stand only once. Like-named read-outs stand apart in the source and are kept apart here.

One assay addresses T1, HIV-1 WT RT (Human immunodeficiency virus type 1 group M subtype B, UniProt P03366).
T1 construct: purified RT protein (0.015 mg/mL) was incubated in a 100 µL reaction mixture
Put plainly: biochemical. The settings on record: for IC50: read-out: IC50.

The next assay has as its system WT virus (NL4-3). Put plainly: microbe, parasite or virus in culture. It is filed as cell-based, HIV-1. The settings on record: read-out: EC50. The protocol:
Evaluation of these compounds for the inhibition of HIV-1 was determined as the fifty percent cell culture inhibitory concentration (CIC50) in CEMSS cell culture with WT virus (NL4-3).
(§1) In this Example, the antiviral and cellular toxicity of NNRTIs was investigated, using the cytopathic cell killing assay described by Yang (Yang et al., "Characteristics of a Group of Non-nucleoside Reverse Transcriptase Inhibitors with Structural Diversity and Potent Anti-Human Immunodeficiency Virus Activity," Leukemia 9:S75-S85 [1995]). Briefly, in this method cells (e.g., the CEM-SS cell line, available from the NIAID AIDS Research and Reference Program [ARRRP]) were seeded at a density of 5 x 10^3 cells/well, into the wells of a 96-well microtiter plate. The cells were then infected with HIV virus (either mutant or WT), at a multiplicity of infection (MOI) previously determined to provide complete cell killing by 6 days of culture post-infection (e.g., MOI of 0.01-0.05). Each of the HIV isolates was pre-titered to induce equivalent levels of infection based on cell killing or virus production, prior to their use in these assays. A range of test compound concentrations was added to the wells in triplicate (e.g., serial half-log dilutions) to evaluate inhibition of HIV infection. Controls for each assay included drug controls (drug colorimetric control wells), drug cytotoxicity control wells (cells with drug), virus control wells (cells with virus), and cell viability controls (cells only). Positive control drugs (e.g., AZT and ddC) were also run in parallel.
(§2) After six days of incubation at 37°C, cell viability was determined spectrophotometrically at 450 nm for each well, using the metabolic reduction of XTT to a soluble colored formazan. (See, Gartner and Popovic, "Virus Isolation and Production, in Aldovini and Walker (eds.), Techniques in HIV Research, Stockton Press, NY, pp. […] [1991]; and Nara and Fischinger, "Quantitative Infectivity Assay for HIV-1 and HIV-2," Nature 332:469-470 [1988]).
(§3) The in vitro therapeutic index (TI50) was defined as the fold-difference between the EC50 and IC50. The results for the various compounds are included in Figures 8 and 19.

The test system of a further assay is NL4-3 (WT). Put plainly: Cytopathic cell killing assay, cross-resistance profile, infected MT-4 cells. It is filed as cell-based, HIV-1.
Excerpt: (§4) The various HIV isolates tested in the Figures are those corresponding to wild-type virus (NL4-3) and the other strains listed by their RT mutations. The three 4xAZT isolates included in the Figures represent AZT drug-resistant variants. For example, the 4xAZT/L100I isolate has five mutations: four mutations confer increased resistance to AZT, and the other mutation is located within the NNRTI binding pocket. TZB and nevir. (nevirapine) are two well-known NNRTIs, included in this experiment for comparison purposes. […]
as §1, §2, §3

The next assay has as its system HIV-1 variant A98G. Described as above. It is filed as cell-based.
Excerpt: as §4, §1, §2, §3

In the next assay the test system is HIV-1 variant K101E. The description is as above. It is filed as cell-based.
Excerpt: as §4, §1, §2, §3

The subject of the next assay is HIV-1 variant K103N. The assay is described as above. It is filed as cell-based. The settings on record: for EC50: isolate K103N.
Excerpt: as §4, §1, §2, §3

For another assay, the system named is HIV-1 variant L100I. The description is as above. It is filed as cell-based.
Excerpt: as §4, §1, §2, §3

The next assay deals with HIV-1 variant L74V. The description is as above. It is filed as cell-based.
Excerpt: as §4, §1, §2, §3

The next assay concerns HIV-1 variant V106A. The assay is described as above. It is filed as cell-based.
Excerpt: as §4, §1, §2, §3

Another assay deals with HIV-1 variant V108I. The assay is described as above. It is filed as cell-based.
Excerpt: as §4, §1, §2, §3

In a further assay the test system is HIV-1 variant V179D. The assay is described as above. It is filed as cell-based. The settings on record: isolate V179D.
Excerpt: as §4, §1, §2, §3

In a further assay the test system is HIV-1 variant Y181C. Described as above. It is filed as cell-based. The settings on record: isolate Y181C.
Excerpt: as §4, §1, §2, §3

A further assay concerns HIV-1 variant Y188C. The assay is described as above. It is filed as cell-based.
Excerpt: as §4, §1, §2, §3

Assay [1] deals with HIV-1 isolate 4xAZT/Y181C. Described as above. It is filed as cell-based. The settings on record: isolate 4XAZT /Y181C.
Excerpt: as §4, §1, §2, §3

Another assay concerns HIV-1 isolate 4xAZT. The assay is described as above. The following applies: isolate 4XAZT. It is filed as cell-based.
Excerpt: as §4, §1, §2, §3

Setting [2] is: Table 11, CEMSS/NL4-3, NRVC = reduction in viral CPE not seen (footnote).
The mark [3] stands for this setting: Table 10 (values in µM), read-out: EC50.
Setting [4] is: Human immunodeficiency virus 1, NL43, CEM-SS, Table 11, CEMSS/NL4-3, NRVC = reduction in viral CPE not seen (footnote).
Where [5] appears, read: Human immunodeficiency virus 1, MT4, Table 10 (values in µM).
The mark [6] stands for this setting: Human immunodeficiency virus 1, MT4, Table 8.
The mark [7] stands for this setting: Human immunodeficiency virus 1, MT4, Table 9.

Regarding “1-(2,6-difluorobenzyl)-2-(2,6-difluorophenyl)-4-acetamidobenzimidazole [compound 56]”, the IC50 at HIV-1 WT RT (Table 7, HIV-1 WT RT) was 54.7 µM; on HIV-1 WT RT (Table 11, WT RT), 54.7 µM. Besides, the “%inhibn (1µM)” value on HIV-1 WT RT (Table 7, WT HIV-1 RT, 1 µM drug) was found to be 24%. The EC50 was 1480 nM in the assay on WT virus (NL4-3) (Table 7, concentration reducing cell killing or virus production by 50%, HIV-1 WT); 1480 nM in the assay with WT virus (NL4-3) (setting [2]); 1.6 µM in the assay with NL4-3 (WT) (Table 8, isolate N1.43, read-out: EC50); 1.97 µM in the assay with NL4-3 (WT) (Table 10 (values in µM), isolate NL4-3 (WT), read-out: EC50); 4300 nM in the assay with HIV-1 variant A98G (Table 8, isolate A9SG, read-out: EC50); > 20 µM in the assay on HIV-1 variant K101E (Table 8, isolate K101E, read-out: EC50). In addition, the EC50 in the assay with HIV-1 variant K103N (Table 8, read-out: EC50) was > 20 µM; in the assay on HIV-1 variant K103N (setting [3]), > 100 µM; in the assay on HIV-1 variant L100I (Table 8, isolate 1.1001, read-out: EC50) it was 2.1 µM; with HIV-1 variant L100I (Table 10 (values in µM), isolate L1001, read-out: EC50), 3.25 µM; in the assay on HIV-1 variant L74V (Table 8, isolate 1.74V, read-out: EC50), 1200 nM; with HIV-1 variant V106A (Table 8, isolate V 106A, read-out: EC50), > 20 µM. In addition, the EC50 in the assay on HIV-1 variant V108I (Table 8, isolate V1081, read-out: EC50) is 5.3 µM; with HIV-1 variant V179D (Table 8, read-out: EC50) it was > 10 µM; with HIV-1 variant Y181C (setting [3]), > 100 µM; with HIV-1 variant Y188C (Table 8, isolate Y 188C, read-out: EC50), > 10 µM.
Regarding `Fc1cccc(F)c1Cn1c(-c2c(F)cccc2F)nc2c(Br)cccc21` [compound 54, 4-bromo-1-(2,6-difluorobenzyl)-2-(2,6-difluorophenyl)benzimidazole], the inhibition at 1 µM is 78% at HIV-1 WT RT (Table 6, WT HIV-1 RT, 1 µM drug, average of two experiments done in triplicates, read-out: %Inhibn (1µM)) and 78% at HIV-1 WT RT (Table 7, WT HIV-1 RT, 1 µM drug, read-out: %inhibn (1µM)). In addition, the IC50 came out at 1.61 µM at HIV-1 WT RT (Table 7, HIV-1 WT RT) and 1.61 µM at HIV-1 WT RT (Table 11, WT RT). For the same molecule, the EC50 in the assay on WT virus (NL4-3) (Human immunodeficiency virus 1, NL43, CEM-SS, Table 7, concentration reducing cell killing or virus production by 50%, HIV-1 WT) was 370 nM; with WT virus (NL4-3) (setting [4]), 370 nM; in the assay with NL4-3 (WT) (Human immunodeficiency virus 1, NL43, MT4, Table 10 (values in µM), isolate NL4-3 (WT)) it was 0.5 µM; with HIV-1 variant K101E (Human immunodeficiency virus 1, MT4, Table 10 (values in µM), isolate K101E) it was > 20 µM; in the assay on HIV-1 variant K103N (setting [5]), > 20 µM; in the assay on HIV-1 variant L100I (Human immunodeficiency virus 1, MT4, Table 10 (values in µM), isolate L1001), 0.5 µM. For the same molecule, the EC50 in the assay on HIV-1 variant V108I (Human immunodeficiency virus 1, MT4, Table 10 (values in µM), isolate V108l) stood at 4.2 µM; in the assay with HIV-1 variant Y181C (setting [5]) it was 10.7 µM; with HIV-1 variant Y188C (Human immunodeficiency virus 1, MT4, Table 10 (values in µM), isolate Y188C), 3.7 µM.
With `[N-]=[N+]=NCc1cccc2c1nc(-c1c(F)cccc1F)n2Cc1c(F)cccc1F` [compound 70, 1-(2,6-difluorobenzyl)-2-(2,6-difluorophenyl)benzimidazol-4-yl-azidomethyl], the EC50 in the assay on WT virus (NL4-3) (setting [2]) is 45 nM; in the assay with NL4-3 (WT) (Table 10 (values in µM), isolate NL4-3 (WT), listed as CH2-N3, read-out: EC50) it was 0.045 µM and 0.06 µM; in the assay with HIV-1 variant K101E (Table 10 (values in µM), isolate K101E, read-out: EC50), 0.6 µM; in the assay with HIV-1 variant K103N (setting [3]) it was 1.48 µM; in the assay with HIV-1 variant V108I (Table 10 (values in µM), isolate V108l, read-out: EC50) it was 0.026 µM; in the assay on HIV-1 variant Y181C (setting [3]), 0.82 µM. Moreover, the EC50 with HIV-1 variant Y188C (Table 10 (values in µM), isolate Y188C, read-out: EC50) came to 0.22 µM.
For the molecule `Cc1ccnc2c1NC(=O)c1cccnc1N2C1CC1` [nevirapine, reference compound], the EC50 was 35 nM in the assay on WT virus (NL4-3) (setting [4]); 0.04 µM in the assay on NL4-3 (WT) (Human immunodeficiency virus 1, NL43, MT4, Table 8, isolate N1.43); 0.04 µM in the assay with NL4-3 (WT) (Human immunodeficiency virus 1, NL43, MT4, Table 9, isolate NL4.3); 3000 nM in assay [1] (setting [6]); 3000 nM in assay [1] (setting [7]); > 500 nM in the assay with HIV-1 isolate 4xAZT (setting [6]). In addition, the EC50 with HIV-1 isolate 4xAZT (setting [7]) is > 500 nM; with HIV-1 variant A98G (Human immunodeficiency virus 1, MT4, Table 8, isolate A9SG) it was 800 nM; in the assay on HIV-1 variant A98G (Human immunodeficiency virus 1, MT4, Table 9, isolate A98G) it was 800 nM; with HIV-1 variant K101E (Human immunodeficiency virus 1, MT4, Table 8, isolate K101E), 1.1 µM; in the assay with HIV-1 variant K101E (Human immunodeficiency virus 1, MT4, Table 9, isolate KIOIE) it was 1.1 µM; in the assay on HIV-1 variant K103N (setting [6]), > 10 µM. The EC50 is > 10 µM with HIV-1 variant K103N (setting [7]); 0.2 µM with HIV-1 variant L100I (Human immunodeficiency virus 1, MT4, Table 8, isolate 1.1001); 0.2 µM in the assay with HIV-1 variant L100I (Human immunodeficiency virus 1, MT4, Table 9, isolate L1001); 40 nM in the assay on HIV-1 variant L74V (Human immunodeficiency virus 1, MT4, Table 8, isolate 1.74V); 40 nM in the assay on HIV-1 variant L74V (Human immunodeficiency virus 1, MT4, Table 9, isolate 1.74 V); > 10 µM with HIV-1 variant V106A (Human immunodeficiency virus 1, MT4, Table 8, isolate V 106A). Besides, the 50% effective concentration (EC50) in the assay on HIV-1 variant V106A (Human immunodeficiency virus 1, MT4, Table 9, isolate V106A) was > 10 µM; in the assay with HIV-1 variant V108I (Human immunodeficiency virus 1, MT4, Table 8, isolate V1081) it was 0.4 µM; in the assay with HIV-1 variant V108I (Human immunodeficiency virus 1, MT4, Table 9, isolate V1081) it was 0.4 µM; in the assay on HIV-1 variant V179D (setting [6]), 4.9 µM; in the assay on HIV-1 variant V179D (setting [7]) it was 0.2 µM; in the assay on HIV-1 variant Y181C (setting [7]), 4.9 µM. For the same molecule, the EC50 was > 0.5 µM with HIV-1 variant Y188C (Human immunodeficiency virus 1, MT4, Table 8, isolate Y 188C) and > 0.5 µM with HIV-1 variant Y188C (Human immunodeficiency virus 1, MT4, Table 9, isolate Y188C). Moreover, the “activity against the K103N mutation / isolate” value in the assay on HIV-1 variant K103N (result in words, cytopathic cell killing assay) is given as “ineffective”.

As a reminder, the IC50 is the concentration that gives 50% inhibition. One may read the EC50 as the midpoint of the concentration-response curve.
